IC50 data for 20 compounds are collected here from US20040006236A1, “Diaminopropionic acid derivatives” (priority 1999, published 2004).

Assay [1] deals with T lymphocyte proliferation (C57BI/6 spleen cells with irradiated BALB/c spleen cells). In words: Mixed lymphocyte reaction (MLR), one-way. Particulars: Mus musculus, T-lymphocyte; read-out: MLR IC50. It is filed as cell-based, mice. An outline of the steps:
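One-way murine MLR: C57BI/6 responder splenocytes proliferate against irradiated BALB/c stimulators while exposed to serially diluted antagonists in supplemented RPMI1640 for 3 days. Proliferation read as [3H]-thymidine uptake over a final 6 h pulse (0.5 μCi/well), scintillation counted.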

The target of assay [2] is T1, LFA-1 binding to immobilized ICAM-1 (Homo sapiens, UniProt P05107+P20701).
T1 construct: made in house; host or cells: transfected 293 cells (LFA-1)
T1 sequence (P20701 26-1170): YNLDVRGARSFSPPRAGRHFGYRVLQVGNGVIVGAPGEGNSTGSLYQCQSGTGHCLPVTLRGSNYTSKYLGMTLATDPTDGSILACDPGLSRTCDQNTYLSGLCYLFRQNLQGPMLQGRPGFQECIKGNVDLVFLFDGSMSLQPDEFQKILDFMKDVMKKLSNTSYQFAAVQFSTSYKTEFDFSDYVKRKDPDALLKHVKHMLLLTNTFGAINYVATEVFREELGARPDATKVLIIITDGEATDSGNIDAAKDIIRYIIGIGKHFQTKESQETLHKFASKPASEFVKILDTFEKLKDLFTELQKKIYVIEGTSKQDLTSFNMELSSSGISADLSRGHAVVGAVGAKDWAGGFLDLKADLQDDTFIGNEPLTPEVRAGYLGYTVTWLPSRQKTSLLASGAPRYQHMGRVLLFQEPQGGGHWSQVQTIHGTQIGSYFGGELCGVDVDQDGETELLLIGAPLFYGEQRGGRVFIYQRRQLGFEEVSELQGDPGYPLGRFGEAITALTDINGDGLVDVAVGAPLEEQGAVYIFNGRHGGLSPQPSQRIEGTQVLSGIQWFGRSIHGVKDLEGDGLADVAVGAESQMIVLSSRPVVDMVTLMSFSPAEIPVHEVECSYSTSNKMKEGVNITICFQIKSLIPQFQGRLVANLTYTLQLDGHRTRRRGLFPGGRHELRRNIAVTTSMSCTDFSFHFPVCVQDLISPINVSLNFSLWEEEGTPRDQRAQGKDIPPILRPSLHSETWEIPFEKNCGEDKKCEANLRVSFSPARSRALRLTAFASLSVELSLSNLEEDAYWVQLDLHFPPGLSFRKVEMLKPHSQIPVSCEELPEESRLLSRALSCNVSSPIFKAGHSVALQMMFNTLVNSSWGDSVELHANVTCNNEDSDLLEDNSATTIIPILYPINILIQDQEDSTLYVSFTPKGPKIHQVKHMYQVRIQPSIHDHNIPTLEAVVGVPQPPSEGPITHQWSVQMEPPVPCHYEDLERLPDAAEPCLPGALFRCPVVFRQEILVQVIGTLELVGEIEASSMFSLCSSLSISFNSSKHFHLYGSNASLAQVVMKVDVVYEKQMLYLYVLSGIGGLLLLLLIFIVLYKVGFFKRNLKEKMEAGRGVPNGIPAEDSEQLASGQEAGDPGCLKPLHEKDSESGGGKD
T1 sequence (P05107 23-769): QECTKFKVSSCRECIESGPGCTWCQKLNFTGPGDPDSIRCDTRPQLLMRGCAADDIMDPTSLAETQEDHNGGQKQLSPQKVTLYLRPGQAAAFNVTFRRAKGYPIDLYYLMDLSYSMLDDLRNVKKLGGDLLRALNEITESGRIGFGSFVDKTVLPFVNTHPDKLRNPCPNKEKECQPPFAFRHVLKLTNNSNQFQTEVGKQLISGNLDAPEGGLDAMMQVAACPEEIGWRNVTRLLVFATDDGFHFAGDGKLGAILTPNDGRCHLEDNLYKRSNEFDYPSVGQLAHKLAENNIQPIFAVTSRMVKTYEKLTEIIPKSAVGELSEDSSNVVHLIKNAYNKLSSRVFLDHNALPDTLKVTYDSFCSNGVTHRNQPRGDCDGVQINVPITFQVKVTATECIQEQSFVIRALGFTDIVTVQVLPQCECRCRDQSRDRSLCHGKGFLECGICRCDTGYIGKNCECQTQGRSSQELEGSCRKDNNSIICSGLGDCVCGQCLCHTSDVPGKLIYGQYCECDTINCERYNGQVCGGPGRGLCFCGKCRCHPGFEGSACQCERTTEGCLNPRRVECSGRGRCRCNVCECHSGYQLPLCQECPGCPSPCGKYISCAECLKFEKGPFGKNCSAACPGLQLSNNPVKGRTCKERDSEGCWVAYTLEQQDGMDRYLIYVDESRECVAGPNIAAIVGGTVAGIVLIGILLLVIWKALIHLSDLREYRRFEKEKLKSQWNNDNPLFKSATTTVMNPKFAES
In words: LFA-1/ICAM-1 protein-protein assay (solid-phase ELISA). The conditions noted are these: read-out: LFA-1/ICAM-1 Protein-Protein Assay IC50. Summed up:
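Human 5dICAM-Ig (ICAM-1 extracellular domain–IgG Fc) coated on plates; membrane-bound LFA-1 from transfected 293 cells (280 ng/mL) added with compound in Mn2+-containing HEPES buffer pH 7.2, 2 h at 37° C. Bound LFA-1 detected via anti-β2 antibody and HRP/TMB at 450 nm; IC50s determined.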

Consider `O=C(NCc1cccc2c1CCN2)c1ccc(C(=O)N[C@@H](CNC(=O)c2cccs2)C(=O)O)c(Cl)c1` [Example 318, 3-(thiophene-2-carbonyl)amino-N-[2-chloro-4-[[(2,3-dihydro-1H-indol-4-ylmethyl)amino]carbonyl]benzoyl]-L-alanine], for which the results for the IC50 in assay [1] and in assay [2] were 1850 nM and 1.9 nM, respectively.

`O=C(CCc1cccc(O)c1)c1ccc(C(=O)N[C@@H](CNC(=O)c2cccs2)C(=O)O)c(Cl)c1` [Example 319, N-[2-chloro-4-[1-oxo-3-(3-hydroxyphenyl)propyl]benzoyl]-3-(thiophene-2-carbonyl)amino-L-alanine]: the IC50 in assay [1] is 665 nM; in assay [2] it was 1.4 nM.

As to `O=C(NC[C@H](NC(=O)c1ccc(-n2nnnc2NCc2cccc(O)c2)cc1Cl)C(=O)O)c1cccs1` [Example 321], the values for the IC50 in assay [1] and in assay [2] were 775 nM and 2.6 nM, respectively.

For `O=C(NCc1cccc2[nH]cnc12)c1ccc(C(=O)N[C@@H](CNC(=O)c2cccs2)C(=O)O)c(Cl)c1` [Example 322], the IC50 in assay [1] came out at 3600 nM; in assay [2], 8.5 nM.

Regarding `Cc1cc(C(=O)NCc2cccc(O)c2)ccc1C(=O)N[C@@H](CNC(=O)c1cccs1)C(=O)O` [Example 323], the IC50 in assay [1] worked out at 325 nM; in assay [2] it was 1.3 nM.

For `O=C(NCc1cccc2[nH]ncc12)c1ccc(C(=O)N[C@@H](CNC(=O)c2cccs2)C(=O)O)c(Cl)c1` [Example 327, N-[2-chloro-4-[[[(1H-indazol-4-yl)methyl]amino]carbonyl]benzoyl]-3-(thiophene-2-carbonyl)amino-L-alanine], the IC50 in assay [1] amounted to 180 nM; in assay [2] it was 1.8 nM.

In the case of `O=C(NCc1cccc2[nH]ccc12)c1ccc(C(=O)N[C@@H](CNC(=O)c2cccs2)C(=O)O)c(Br)c1` [Example 329], the IC50 in assay [1] came to 420 nM; in assay [2], 2.7 nM.

`Cc1cc(C(=O)NCc2cccc(O)c2)cc(C)c1C(=O)N[C@@H](CNC(=O)c1cccs1)C(=O)O` [Example 330]: the IC50 is 32 nM in assay [1] and 1.4 nM in assay [2].

For `C[C@@H](NC(=O)c1ccc(C(=O)N[C@@H](CNC(=O)c2cccs2)C(=O)O)c(Br)c1)c1cccc2ccccc12` [Example 332], the IC50 in assay [1] is 1540 nM; in assay [2] it was 4.8 nM.

Take `Cc1cc(C(=O)N[C@H](C)c2cccc3ccccc23)cc(C)c1C(=O)N[C@@H](CNC(=O)c1cccs1)C(=O)O` [Example 333]: the IC50 in assay [1] stood at 180 nM; in assay [2], 3.5 nM.

For `Nc1cccc(CNC(=O)c2ccc(C(=O)N[C@@H](CNC(=O)c3cccs3)C(=O)O)c(Br)c2)c1` [Example 334, N-[4-[[[(3-aminophenyl)methyl]amino]carbonyl]-2-bromobenzoyl]-3-(thiophene-2-carbonyl)amino-L-alanine], the IC50 amounted to 495 nM in assay [1] and 3 nM in assay [2].

Regarding `Cc1cc(C(=O)NCc2cccc(O)c2)cc(C)c1C(=O)N[C@@H](CNC(=O)c1ccsc1)C(=O)O` [Example 336, N-[2,6-dimethyl-4-[[[(3-hydroxyphenyl)methyl]amino]carbonyl]benzoyl]-3-(thiophene-3-carbonyl)amino-L-alanine], the IC50 in assay [1] is 33 nM; in assay [2], 2.1 nM.

With `Cc1cc(C(=O)NCc2cccc(O)c2)cc(C)c1C(=O)N[C@@H](CNC(=O)c1cc(F)cc(F)c1)C(=O)O` [Example 337, N-[2,6-dimethyl-4-[[[(3-hydroxyphenyl)methyl]amino]carbonyl]benzoyl]-3-(3,5-difluorobenzoylamino)-L-alanine], the IC50 is 59 nM in assay [1] and 3.7 nM in assay [2].

Take `Cc1cc(C(=O)NCc2cccc(O)c2)cc(Cl)c1C(=O)N[C@@H](CNC(=O)c1cccs1)C(=O)O` [Example 338, N-[2-chloro-4-[[[(3-hydroxyphenyl)methyl]amino]carbonyl]-6-methylbenzoyl]-3-[(thiophene-2-carbonyl)amino]-L-alanine]: the IC50 is 21 nM in assay [1] and 1.5 nM in assay [2].

With `Cc1cc(C(=O)NCc2cccc(O)c2)cc(Cl)c1C(=O)N[C@@H](CNC(=O)c1ccsc1)C(=O)O` [Example 339, N-[2-chloro-4-[[[(3-hydroxyphenyl)methyl]amino]carbonyl]-6-methylbenzoyl]-3-[(thiophene-3-carbonyl)amino]-L-alanine], the figures for the IC50 in assay [1] and in assay [2] were 29 nM and 1.7 nM, respectively.

`Cc1cc(C(=O)NCc2cccc(O)c2)cc(Cl)c1C(=O)N[C@@H](CNC(=O)c1cc(F)cc(F)c1)C(=O)O` [Example 340, N-[2-chloro-4-[[[(3-hydroxyphenyl)methyl]amino]carbonyl]-6-methylbenzoyl]-3-[(3,5-difluorobenzoyl)amino]-L-alanine]: the figures for the IC50 in assay [1] and in assay [2] were 36 nM and 0.3 nM, respectively.

`O=C(NCc1cccc(O)c1)c1cc(Cl)c(C(=O)N[C@@H](CNC(=O)c2cccs2)C(=O)O)c(Cl)c1` [Example 342, N-[2,6-dichloro-4-[[[(3-hydroxyphenyl)methyl]amino]carbonyl]benzoyl]-3-[(thiophene-2-carbonyl)amino]-L-alanine]: the IC50 in assay [1] was 27 nM; in assay [2], 1.6 nM.

For the compound `O=C(NCc1cccc(O)c1)c1cc(Cl)c(C(=O)N[C@@H](CNC(=O)c2ccsc2)C(=O)O)c(Cl)c1` [Example 343, N-[2,6-dichloro-4-[[[(3-hydroxyphenyl)methyl]amino]carbonyl]benzoyl]-3-[(thiophene-3-carbonyl)amino]-L-alanine], the IC50 was determined as 30 nM in assay [1] and 2.5 nM in assay [2].

Consider `O=C(NCc1cccc(O)c1)c1cc(Cl)c(C(=O)N[C@@H](CNC(=O)c2cc(F)cc(F)c2)C(=O)O)c(Cl)c1` [Example 344, N-[2,6-dichloro-4-[[[(3-hydroxyphenyl)methyl]amino]carbonyl]benzoyl]-3-[(3,5-difluorobenzoyl)amino]-L-alanine], for which the IC50 in assay [1] worked out at 34 nM; in assay [2] it was 0.3 nM.

For the compound `O=C(NCc1cccc(O)c1)c1cc(Cl)c(C(=O)N[C@@H](CNC(=O)c2cc(O)cc(O)c2)C(=O)O)c(Cl)c1` [Example 345, N-[2,6-dichloro-4-[[[(3-hydroxyphenyl)methyl]amino]carbonyl]benzoyl]-3-(3,5-dihydroxybenzoylamino)-L-alanine], the IC50 in assay [1] stood at 2 nM; in assay [2] it was 0.2 nM.
